# pIC50: −log10 of the molar value. Where two headings read alike, the source gives them in different places.
# Assays:
# [1] = target: T1, mutant HIV reverse transcriptase, Y181C mutation (Human immunodeficiency virus type 1 group M subtype B, UniProt P04585, Y768C); assay: Analogous RT inhibition assay, Y181C mutant; assay type: biochemical
# T1 construct: made in house
# Experimental: (§1) 100 μL reaction mixtures were initiated with a combination of primer-template substrate (10 nM final concentration) and dNTPs (0.6 μM dNTPs, 0.75 μM [^3H]-dGTP). The heterodimeric nucleic acid substrate was generated by annealing the DNA primer pD500 (described in Shaw-Reid et al., J. Biol. Chem., 278: 2777-2780; obtained from Integrated DNA Technologies) to t500, a 500 nucleotide RNA template created by in vitro transcription (see Shaw-Reid et al., J. Biol. Chem., 278: 2777-2780). After 1 hour incubation at 37° C., reactions were quenched by 10 μL streptavidin scintillation proximity assay beads (10 mg/mL, from Amersham Biosciences) in 0.5 M EDTA, pH 8. Microtiter plates were incubated an additional 10 minutes at 37° C. prior to quantification via Topcount (Packard).
# (§2) Analogous assays were conducted substituting mutant HIV strains to determine the […] inhibition of compounds of the present invention against mutant HIV reverse transcriptase. In one strain the reverse transcriptase has the Y181C mutation and in the other strain the reverse transcriptase has the K103N mutation. The mutations were generated with the […] site-directed mutagenesis kit (Stratagene).
# [2] = test system: acute HIV infection of T-lymphoid cells; assay: Assay for inhibition of HIV replication (spread assay); assay type: cell-based; conditions: Human immunodeficiency virus 1; inhibition of HIV replication in T-lymphoid cells
# Experimental: An assay for the inhibition of acute HIV infection of T-lymphoid cells (alternatively referred to herein as the “spread assay”) was conducted in accordance with Vacca, J. P. et al., Proc. Natl. Acad. Sci. USA 1994, 91: 4096. […] The compounds of Examples 2-4 and 22 were not tested.
# [3] = target: T2, mutant HIV reverse transcriptase, K103N mutation (Human immunodeficiency virus type 1 group M subtype B, UniProt P04585, K690N); assay: Analogous RT inhibition assay, K103N mutant; assay type: biochemical
# T2 construct: made in house
# Experimental: as §1, §2
# [4] = Y181C mutant RT, tested up to 20 micromolar, read-out: IC50, Y181C mutant assay
# [5] = K103N mutant RT, tested up to 20 micromolar, read-out: IC50, K103N mutant assay
smiles,measurement,setting,value
"COCc1nc(-c2[nH]c3ccc(Cl)cc3c2S(=O)(=O)c2ccccc2)no1 [Example 1, 5-chloro-2-[5-(methoxymethyl)-1,2,4-oxadiazol-3-yl]-3-(phenylsulfonyl)-1H-indole]",pIC50,[1],< 4.70
same,IC95,[2],< 1 µM
same,pIC50,[3],< 4.70
"O=S(=O)(c1ccccc1)c1c(-c2nc(-c3cccnc3)cs2)[nH]c2ccc(Cl)cc12 [Example 4, 5-chloro-3-(phenylsulfonyl)-2-(4-pyridin-3-yl-1,3-thiazol-2-yl)-1H-indole]",pIC50,[1]; [4],< 4.70
same,pIC50,[3]; [5],< 4.70
"O=S(=O)(c1c(-c2nc3ccccc3[nH]2)[nH]c2ccc(Br)cc12)N1CCCC1 [Example 17, 2-[5-bromo-3-(pyrrolidin-1-ylsulfonyl)-1H-indol-2-yl]-1H-benzimidazole]",pIC50,[1],> 6.00
same,IC95,[2],< 1 µM
same,pIC50,[3]; [5],> 6.00
"COc1ccc(-c2c[nH]c(-c3[nH]c4ccc(Br)cc4c3S(=O)(=O)N3CCCC3)n2)cc1 [Example 28, 5-bromo-2-[4-(4-methoxyphenyl)-1H-imidazol-2-yl]-3-(pyrrolidin-1-ylsulfonyl)-1H-indole]",pIC50,[1]; [4],4.70 to 6.00
same,IC95,[2],< 1 µM
same,pIC50,[3]; [5],> 6.00
"CCC(CC)S(=O)(=O)c1c(-c2ncc(C)[nH]2)[nH]c2ccc(Cl)cc12 [Example 37, 5-chloro-3-[(pent-3-yl)sulfonyl]-2-(5-methyl-1H-imidazol-2-yl)-1H-indole]",pIC50,[1]; [4],> 6.00
same,IC95,[2],< 1 µM
same,pIC50,[3],< 5.00
"O=S(=O)(c1ccccc1)c1c(-c2noc(C3CCC3)n2)[nH]c2ccc(Cl)cc12 [Example 13, 5-chloro-2-(5-cyclobutyl-1,2,4-oxadiazol-3-yl)-3-(phenylsulfonyl)-1H-indole]",pIC50,[1]; [4],< 4.70
same,IC95,[2],< 1 µM
same,pIC50,[3]; [5],< 4.70
"O=S(=O)(c1ccccc1)c1c(-c2noc([C@@H]3C[C@H]3c3ccccc3)n2)[nH]c2ccc(Cl)cc12 [Example 8, 5-chloro-2-{5-[(1R,2R)-2-phenylcyclopropyl]-1,2,4-oxadiazol-3-yl}-3-(phenylsulfonyl)-1H-indole]",pIC50,[1]; [4],< 4.70
same,IC95,[2],2.5 µM
same,pIC50,[3]; [5],< 4.70
"O=S(=O)(c1c(-c2nc(-c3ccc(F)c(F)c3)c[nH]2)[nH]c2ccc(Br)cc12)N1CCCC1 [Example 26, 5-bromo-2-[4-(3,4-difluorophenyl)-1H-imidazol-2-yl]-3-(pyrrolidin-1-ylsulfonyl)-1H-indole]",pIC50,[1]; [4],< 4.70
same,IC95,[2],< 1 µM
same,pIC50,[3]; [5],> 6.00
"N#Cc1ccc(-c2c[nH]c(-c3[nH]c4ccc(Br)cc4c3S(=O)(=O)N3CCCC3)n2)cc1 [Example 33, 4-{2-[5-bromo-3-(pyrrolidin-1-ylsulfonyl)-1H-indol-2-yl]-1H-imidazol-4-yl}benzonitrile]",pIC50,[1],< 4.70
same,IC95,[2],< 1 µM
same,pIC50,[3]; [5],> 6.00
"O=S(=O)(c1ccccc1)c1c(-c2nc(-c3ccccn3)cs2)[nH]c2ccc(Cl)cc12 [Example 3, 5-chloro-3-(phenylsulfonyl)-2-(4-pyridin-2-yl-1,3-thiazol-2-yl)-1H-indole]",pIC50,[1]; [4],< 4.70
same,pIC50,[3]; [5],< 4.70
"CCc1nc(-c2[nH]c3ccc(Cl)cc3c2S(=O)(=O)c2ccccc2)no1 [Example 15, 5-chloro-2-(5-ethyl-1,2,4-oxadiazol-3-yl)-3-(phenylsulfonyl)-1H-indole]",pIC50,[1]; [4],< 4.70
same,IC95,[2],< 1 µM
same,pIC50,[3]; [5],< 4.70
"O=S(=O)(c1ccccc1)c1c(-c2noc(-c3ccc(F)cc3F)n2)[nH]c2ccc(Cl)cc12 [Example 11, 5-chloro-2-[5-(2,4-difluorophenyl)-1,2,4-oxadiazol-3-yl]-3-(phenylsulfonyl)-1H-indole]",pIC50,[1]; [4],< 4.70
same,IC95,[2],< 1 µM
same,pIC50,[3]; [5],< 4.70
"Cc1cnc(-c2[nH]c3ccc(Cl)cc3c2S(=O)(=O)C2CCCC2)[nH]1 [Example 35, 5-chloro-3-[(cyclopentyl)sulfonyl]-2-(5-methyl-1H-imidazol-2-yl)-1H-indole]",pIC50,[1]; [4],> 6.00
same,IC95,[2],< 1 µM
same,pIC50,[3],> 6.00
"O=S(=O)(c1ccccc1)c1c(-c2noc(COc3ccccc3)n2)[nH]c2ccc(Cl)cc12 [Example 9, 5-chloro-2-[5-(phenoxymethyl)-1,2,4-oxadiazol-3-yl]-3-(phenylsulfonyl)-1H-indole]",pIC50,[1]; [4],< 4.70
same,IC95,[2],< 1 µM
same,pIC50,[3]; [5],< 4.70
"O=S(=O)(c1c(-c2nc(-c3ccc(Cl)cc3)c[nH]2)[nH]c2ccc(Br)cc12)N1CCCC1 [Example 24, 5-bromo-2-[4-(4-chlorophenyl)-1H-imidazol-2-yl]-3-(pyrrolidin-1-ylsulfonyl)-1H-indole]",pIC50,[1]; [4],< 4.70
same,IC95,[2],< 1 µM
same,pIC50,[3]; [5],> 6.00
"O=S(=O)(c1c(-c2nc(-c3ccc(F)cc3)c[nH]2)[nH]c2ccc(Br)cc12)N1CCCC1 [Example 25, 5-bromo-2-[4-(4-fluorophenyl)-1H-imidazol-2-yl]-3-(pyrrolidin-1-ylsulfonyl)-1H-indole]",pIC50,[1]; [4],< 4.70
same,IC95,[2],< 1 µM
same,pIC50,[3]; [5],> 6.00
"O=S(=O)(c1c(-c2nc(-c3ccc(N4CCOCC4)cc3)c[nH]2)[nH]c2ccc(Br)cc12)N1CCCC1 [Example 19, 5-bromo-2-[4-(4-morpholin-4-ylphenyl)-1H-imidazol-2-yl]-3-(pyrrolidin-1-ylsulfonyl)-1H-indole]",pIC50,[1],< 4.70
same,IC95,[2],< 1 µM
same,pIC50,[3]; [5],> 6.00
"O=S(=O)(c1c(-c2ncc(-c3ccccc3)[nH]2)[nH]c2ccc(Br)cc12)N1CCCC1 [Example 23, 5-bromo-2-(4-phenyl-1H-imidazol-2-yl)-3-(pyrrolidin-1-ylsulfonyl)-1H-indole]",pIC50,[1]; [4],< 4.70
same,IC95,[2],< 1 µM
same,pIC50,[3]; [5],> 6.00
"O=S(=O)(c1ccccc1)c1c(-c2noc(-c3ccccc3F)n2)[nH]c2ccc(Cl)cc12 [Example 7, 5-chloro-2-[5-(2-fluorophenyl)-1,2,4-oxadiazol-3-yl]-3-(phenylsulfonyl)-1H-indole]",pIC50,[1]; [4],< 4.70
same,IC95,[2],< 1 µM
same,pIC50,[3]; [5],< 4.70
"O=S(=O)(c1ccccc1)c1c(-c2noc(Cc3ccccc3)n2)[nH]c2ccc(Cl)cc12 [Example 14, 2-(5-benzyl-1,2,4-oxadiazol-3-yl)-5-chloro-3-(phenylsulfonyl)-1H-indole]",pIC50,[1]; [4],< 4.70
same,IC95,[2],< 1 µM
same,pIC50,[3]; [5],< 4.70
"O=[N+]([O-])c1ccc(-c2c[nH]c(-c3[nH]c4ccc(Br)cc4c3S(=O)(=O)N3CCCC3)n2)cc1 [Example 32, 5-bromo-2-[4-(4-nitrophenyl)-1H-imidazol-2-yl]-3-(pyrrolidin-1-ylsulfonyl)-1H-indole]",pIC50,[1],4.70 to 6.00
same,IC95,[2],< 1 µM
same,pIC50,[3]; [5],> 6.00
"O=S(=O)(c1c(-c2nc([C@H](O)[C@@H](O)[C@@H](O)CO)c[nH]2)[nH]c2ccc(Br)cc12)N1CCCC1 [Example 18, (1S,2R,3S)-1-{2-[5-bromo-3-(pyrrolidin-1-ylsulfonyl)-1H-indol-2-yl}-1H-imidazol-4-yl}butane-1,2,3,4-tetrol]",pIC50,[1],4.70 to 6.00
same,IC95,[2],< 1 µM
same,pIC50,[3]; [5],> 6.00
"Cc1nc(-c2[nH]c3ccc(Cl)cc3c2S(=O)(=O)c2ccccc2)no1 [Example 12, 5-chloro-2-(5-methyl-1,2,4-oxadiazol-3-yl)-3-(phenylsulfonyl)-1H-indole]",pIC50,[1]; [4],< 4.70
same,IC95,[2],< 1 µM
same,pIC50,[3]; [5],< 4.70
"O=S(=O)(c1c(-c2nc(-c3ccc(O)cc3)c[nH]2)[nH]c2ccc(Br)cc12)N1CCCC1 [Example 27, 4-{2-[5-bromo-3-(pyrrolidin-1-ylsulfonyl)-1H-indol-2-yl]-1H-imidazol-4-yl}phenol]",pIC50,[1]; [4],4.70 to 6.00
same,IC95,[2],< 1 µM
same,pIC50,[3]; [5],> 6.00
"CCC(OC)c1cnc(-c2[nH]c3ccc(Br)cc3c2S(=O)(=O)N2CCCC2)[nH]1 (stereo not drawn) [Example 21, 5-bromo-2-[4-(1-methoxypropyl)-1H-imidazol-2-yl]-3-(pyrrolidin-1-ylsulfonyl)-1H-indole]",pIC50,[1],4.70 to 6.00
same,IC95,[2],< 1 µM
same,pIC50,[3]; [5],> 6.00
"Cc1cnc(-c2[nH]c3ccc(Br)cc3c2S(=O)(=O)N2CCCC2)[nH]1 [Example 16, 5-Bromo-2-(4-methyl-1H-imidazol-2-yl)-3-(pyrrolidin-1-ylsulfonyl)-1H-indole]",pIC50,[1],> 6.00
same,IC95,[2],< 1 µM
same,pIC50,[3]; [5],> 6.00
"O=S(=O)(c1c(-c2nc(-c3ccc4c(c3)OCO4)c[nH]2)[nH]c2ccc(Br)cc12)N1CCCC1 [Example 30, 2-[4-(1,3-benzodioxol-5-yl)-1H-imidazol-2-yl]-5-bromo-3-(pyrrolidin-1-ylsulfonyl)-1H-indole]",pIC50,[1]; [4],4.70 to 6.00
same,IC95,[2],< 1 µM
same,pIC50,[3]; [5],> 6.00
"O=S(=O)(c1c(-c2nc(-c3ccc(F)cc3F)c[nH]2)[nH]c2ccc(Br)cc12)N1CCCC1 [Example 22, 5-bromo-2-[4-(2,4-difluorophenyl)-1H-imidazol-2-yl]-3-(pyrrolidin-1-ylsulfonyl)-1H-indole]",pIC50,[1]; [4],< 4.70
same,pIC50,[3]; [5],> 6.00

# — US20100168097A1, “Non-Nucleoside Reverse Transcriptase Inhibitors” (priority 2005, published 2010)
